{
  "source": "patent US20220296515A1",
  "about": "“Vancomycin Liposome Compositions and Methods” (Nevakar Injectables Inc., priority 2019, published 2022)",
  "key": {"[1]": {"experiment": "Pharmacokinetic study in rat models (single dose, infusion)", "format": "in vivo", "conditions": "15 mg/kg, infusion time 1 h", "excerpt": "5. […] Thus, vancomycin was available for a prolonged period and less frequent administration is enabled."}, "rats [2]": {"system": "rats", "experiment": "Urinary biomarkers of renal damage (KIM-1, clusterin, osteopontin) in the rat toxicity study", "format": "in vivo", "conditions": "150 mg/kg daily for 5 days, FIG. 8", "experimental": "(§1) To evaluate toxicity of the liposomal formulations, rats were dosed daily with 150 mg/kg test formulation for 5 days, which is about 10-fold of a dose for human administration (typically 1 g).\n(§2) The endpoints for renal damage were urinary biomarkers (KIM-1, Clusterin, Osteopontin), a plasma biomarker (creatinine), and histopathology findings for the kidney. Here, blood sampling was performed at a total volume of 2 mL and clinical chemistry samples were drawn pre-dosing, day 3, and day 5 (0.25 mL each), and pharmacokinetic samples were drawn on Day 1 (4 samples of 0.125 mL), Day 3 (4 samples of 0.125 mL), and Day 5 (2 samples of 0.125 mL). For each animal, at euthanasia, kidneys were formalin fixed and flash frozen in liquid nitrogen. Samples were analyzed for histopathological grading using standard procedures well known in the art.\nFurther exemplary results are shown for selected urinary markers in FIG. 8. Here, the markers included KIM-1, clusterin, and osteopontin (OPN). […] On the other hand, the markers remained substantially unchanged or only moderately elevated over control in both treatment groups where liposomal compositions according to the inventive subject matter were used."}, "rats [3]": {"system": "rats", "experiment": "Kidney histopathology in the rat toxicity study", "format": "in vivo", "conditions": "150 mg/kg daily for 5 days", "experimental": "as §1, §2"}, "[4]": {"conditions": "cited from earlier work"}},
  "note": "Where two headings read alike, the source gives them in different places.",
  "data": [
    {"smiles": "CN[C@H](CC(C)C)C(=O)N[C@H]1C(=O)N[C@@H](CC(N)=O)C(=O)N[C@H]2C(=O)N[C@H]3C(=O)N[C@H](C(=O)N[C@H](C(=O)O)c4cc(O)cc(O)c4-c4cc3ccc4O)[C@H](O)c3ccc(c(Cl)c3)Oc3cc2cc(c3O[C@@H]2O[C@H](CO)[C@@H](O)[C@H](O)[C@H]2O[C@H]2C[C@](C)(N)[C@H](O)[C@H](C)O2)Oc2ccc(cc2Cl)[C@H]1O", "note": "[Vancomycin]", "values": [
      {"measurement": "Lambda z", "setting": "[1]", "result": 0.879},
      {"measurement": "AUC(0-inf)", "setting": "[1]; serum, iv", "result": 34800, "unit": "ng·h/mL"},
      {"measurement": "Cmax", "setting": "[1]; serum, iv", "result": 34600, "unit": "ng/mL"},
      {"measurement": "Tmax", "setting": "[1]; serum, iv", "result": 0, "unit": "h"},
      {"measurement": "half-life", "setting": "[1]; serum, iv", "result": 48, "unit": "min"},
      {"measurement": "urinary markers KIM-1, clusterin, osteopontin (OPN)", "setting": "rats [2]", "result": "significant elevations of all markers"},
      {"measurement": "kidney histopathological findings", "setting": "rats [3]", "result": "significant proximal tubular cell injury and repair"},
      {"measurement": "half-life", "setting": "[4]; humans with normal renal function", "result": "three to six"},
      {"measurement": "mean plasma concentration", "setting": "[4]; humans, multiple intravenous infusions of 1 gram over 60 minutes, 11 hours after end of infusion", "result": 8000, "unit": "ng/mL"},
      {"measurement": "recovered unchanged in urine", "setting": "[4]; within 24 h after a single dose", "result": "80%-90"}
    ]}
  ]
}
